We go through three compounds from patent publication US5789386A, “Fluorine-containing anthracycline derivatives having hydroxyl groups(s) mono- or di-o-aminoalkanoylated in the sugar moiety thereof” (priority 1995, dated 1998).

≈ marks a conversion by molar mass, not a printed value. Where two headings read alike, the source gives them in different places.

Series [1] concerns mouse leukemia, P388 cells. In words: In vitro growth inhibition of P388 cells, 72 hours. The format is cell-based. The note with it: P388, 72 h.
In series [2] the test system is adriamycin-resistant P388 cells (P388/ADR). The series is described as follows: In vitro growth inhibition of adriamycin-resistant P388 cells (P388/ADR), 72 hours. The format is cell-based. The note with it: Mus musculus, 72 h.
In a further series the test system is Leukemia L-1210 cells. In words: Antitumor test against leukemia L-1210 in CDF1 mice (T/C, %). The format is in vivo, mouse (CDF1). To be noted: for % Increase in life-span (T/C, %): 9 days; for percentage (%) of increase in life-span (T/C, %) at maximum: 2.5 mg/kg/day to 5 mg/kg/day; for percentage (%) of increase in life-span (T/C, %) at maximum / development of toxicity (in words): L-1210 mice; for development of toxicity (in words): daunomycin, adriamycin 2.5 mg/kg/day to 5 mg/kg/day. On the procedure: Thus, to evaluate the antitumor effects of the new compounds according to the first aspect of this invention against experimental tumors in animals, CDF1 mice (four mice per group) were intraperitoneally transplanted with cells of Leukemia L-1210 at an amount of 1×10^5 cells/mouse. Since an elapsed time of 24 hours from the transplantation of the leukemia cells, a test compound according to this invention was administered intraperitoneally to the mice under test for 9 consecutive days once per day. […] While, mice of the control group (the untreated group) were administered with only physiological saline after the transplantation of the L-1210 cells. During the observation period, the numbers of the surviving mice in the treated group and in the control group were counted, and the mean survival days of mice in the treated group and in the control group were then calculated. From the mean survival day (C) of the untreated mice of the control group and the mean survival day (T) of the treated mice of the treated group, there were evaluated percentages (%) of the increase in the life-span of the treated mice, as T/C %. For a comparison purpose, 7-O-(2,6-dideoxy-2-fluoro-α-L-talopyranosyl)daunomycinone (abbreviation: FT-DM); 7-O-(2,6-dideoxy-2-fluoro-α-L-talopyranosyl)adriamycinone(abbreviation: FT-ADM); and adriamycin were also tested in the same manner as above. Incidentally, the mean survival day of mice of the control group (the untreated group) was amounting to 8 to 9 days, and the mean survival day of mice of the comparative groups having received the administration of adriamycin was varying dependently on the dosage of adriamycin.
Notes; Asterisks (*) indicate that development of toxicity such as
toxicityrelated death or a body weight loss was observed on the
corresponding mice tested.

The conditions of series [3]: cited from earlier work.
The conditions of series [4]: low dosages which give high antitumor effects; test animals; cited from earlier work.
A further series concerns experimental tumors. The note with it: test animals; background, earlier applications; cited from earlier work.

Take `COc1cccc2c1C(=O)c1c(O)c3c(c(O)c1C2=O)C[C@@](O)(C(=O)CO)C[C@@H]3O[C@H]1C[C@H](N)[C@H](O)[C@H](C)O1` [Adriamycin, adriamycin, reference compound]: the IC50 (commonly the concentration that gives 50% inhibition) in series [1] is 0.033 µg/mL (≈ 0.0607 µM); in series [2], 1.3 µg/mL (≈ 2.39 µM). The “% Increase in life-span (T/C, %)” value in the series with Leukemia L-1210 cells (0.15 mg/kg/day i.p.) amounted to 140%; with Leukemia L-1210 cells (0.3 mg/kg/day i.p., ">" = at least one of four mice survived 60 days or longer), 132%; with Leukemia L-1210 cells (0.6 mg/kg/day i.p., ">" = at least one of four mice survived 60 days or longer), 208%; with Leukemia L-1210 cells (1.25 mg/kg/day i.p., ">" = at least one of four mice survived 60 days or longer) it was 330%; in the series on Leukemia L-1210 cells (2.5 mg/kg/day i.p., ">" = at least one of four mice survived 60 days or longer) it was 273%; in the series on Leukemia L-1210 cells (5 mg/kg/day i.p., ">" = at least one of four mice survived 60 days or longer) it was 177%. In addition, the “percentage (%) of increase in life-span (T/C, %) at maximum” value in the series with Leukemia L-1210 cells is “approximately 330%”. In the series with Leukemia L-1210 cells, the “development of toxicity (in words)” value was “being accompanied by development of toxicity”. In addition, the “serious side-effects (in words)” value in series [3] (clinical use, many instances) was “serious side-effects such as leukocytopenia, alopecia, myocardiopathy and others”.
In the case of `COc1cccc2c1C(=O)c1c(O)c3c(c(O)c1C2=O)C[C@@](O)(C(C)=O)C[C@@H]3O[C@H]1C[C@H](N)[C@H](O)[C@H](C)O1` [daunomycin, reference compound], in the series on Leukemia L-1210 cells, the “percentage (%) of increase in life-span (T/C, %) at maximum” value is recorded as “approximately 330%” and the “development of toxicity (in words)” value was “being accompanied by development of toxicity”. For the same compound, the “serious side-effects (in words)” value in series [3] (in vivo) is “serious side-effects such as leukocytopenia, alopecia, myocardiopathy and others”.
`COc1cccc2c1C(=O)c1c(O)c3c(c(O)c1C2=O)C[C@@](O)(C(=O)CO)C[C@@H]3O[C@H]1C[C@H](O)[C@H](O)[C@H](C(F)(F)F)O1` [formula (D), 7-O-(2,6-dideoxy-6,6,6-trifluoro-α-L-lyxo-hexopyranosyl)adriamycinone]: the “development of acute toxicity (in words)” value in series [4] is “development of acute toxicity does not take place”. Further, the “anticancer or antitumor activity (in words)” value in the series with experimental tumors was “high anticancer or antitumor activity”.
